# Values of other authors, collected in patent US20110145936A1, “Genetically Modified Rat Models for Pharmacokinetics” (priority 2009, published 2011).
# Assays:
# [1] = target: T1, Slc7a11 (Homo sapiens, UniProt Q9UPY5); conditions: WT Slc7a11 cells; more sensitive to the GA analog
# T1 sequence (Q9UPY5 1-501): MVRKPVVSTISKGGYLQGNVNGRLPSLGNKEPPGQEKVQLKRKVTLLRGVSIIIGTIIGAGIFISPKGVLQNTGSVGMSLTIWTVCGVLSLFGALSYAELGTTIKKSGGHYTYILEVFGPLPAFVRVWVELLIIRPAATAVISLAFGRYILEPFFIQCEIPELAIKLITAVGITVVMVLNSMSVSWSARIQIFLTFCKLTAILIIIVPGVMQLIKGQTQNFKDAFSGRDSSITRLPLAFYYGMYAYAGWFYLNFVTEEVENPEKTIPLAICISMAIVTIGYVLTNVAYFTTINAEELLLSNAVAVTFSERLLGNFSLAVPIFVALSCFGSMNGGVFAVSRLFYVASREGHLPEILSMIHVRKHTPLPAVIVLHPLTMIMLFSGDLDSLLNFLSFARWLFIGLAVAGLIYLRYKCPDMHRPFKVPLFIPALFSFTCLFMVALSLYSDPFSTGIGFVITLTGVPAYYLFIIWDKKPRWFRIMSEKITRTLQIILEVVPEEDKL
# T1 sequence (P08195 1-529 partner): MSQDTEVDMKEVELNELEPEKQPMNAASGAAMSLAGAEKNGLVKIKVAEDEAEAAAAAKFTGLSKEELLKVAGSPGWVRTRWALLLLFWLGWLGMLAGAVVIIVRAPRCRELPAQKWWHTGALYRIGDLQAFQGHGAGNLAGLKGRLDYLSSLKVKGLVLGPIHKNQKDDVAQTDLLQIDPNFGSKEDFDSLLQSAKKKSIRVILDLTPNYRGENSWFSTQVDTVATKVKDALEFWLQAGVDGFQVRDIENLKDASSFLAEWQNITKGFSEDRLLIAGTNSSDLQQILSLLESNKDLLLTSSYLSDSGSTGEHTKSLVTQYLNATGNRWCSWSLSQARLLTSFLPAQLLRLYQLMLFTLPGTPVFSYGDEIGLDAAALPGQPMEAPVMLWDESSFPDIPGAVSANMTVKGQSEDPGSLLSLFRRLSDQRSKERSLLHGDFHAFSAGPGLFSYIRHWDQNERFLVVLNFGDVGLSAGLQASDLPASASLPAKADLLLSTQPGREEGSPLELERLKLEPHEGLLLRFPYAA
# [2] = system: Abcg2 & Abcb1; conditions: gene Abcg2 & Abcb1
# [3] = target: Abcc1 (Mus musculus, UniProt O35379); conditions: for white blood cell, bone marrow nucleated cell and spleen myeloid activity: Abcc1 KO mice after etoposide
# [4] = target: Slc22a8 (Mus musculus, UniProt Q9WTW5); conditions: gene Slc22a8
# [5] = target: T2, Abcg2 (Mus musculus, UniProt Q7TMS5); conditions: Abcg2-/- mice vs WT
# T2 construct: host or cells: whole animal: WT mice versus Abcg2-/- mice
# T2 sequence (Q7TMS5 1-657): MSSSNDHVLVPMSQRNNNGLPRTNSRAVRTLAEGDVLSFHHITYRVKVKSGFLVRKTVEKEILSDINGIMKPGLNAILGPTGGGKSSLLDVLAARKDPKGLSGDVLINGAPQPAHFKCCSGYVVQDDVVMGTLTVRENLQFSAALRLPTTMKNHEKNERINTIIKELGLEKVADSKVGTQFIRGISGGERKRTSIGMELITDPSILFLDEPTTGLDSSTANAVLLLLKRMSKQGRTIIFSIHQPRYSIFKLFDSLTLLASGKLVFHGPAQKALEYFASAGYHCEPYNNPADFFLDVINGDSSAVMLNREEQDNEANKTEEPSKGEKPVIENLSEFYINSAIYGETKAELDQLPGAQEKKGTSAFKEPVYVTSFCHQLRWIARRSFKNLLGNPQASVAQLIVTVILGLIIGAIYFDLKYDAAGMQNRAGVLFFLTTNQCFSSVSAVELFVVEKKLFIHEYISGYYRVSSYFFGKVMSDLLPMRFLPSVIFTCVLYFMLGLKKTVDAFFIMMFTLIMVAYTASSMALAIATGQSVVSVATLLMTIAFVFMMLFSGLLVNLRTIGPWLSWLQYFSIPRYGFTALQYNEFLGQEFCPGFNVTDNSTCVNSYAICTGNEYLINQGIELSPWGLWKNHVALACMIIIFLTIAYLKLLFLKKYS
# [6] = target: Abcb11 (Mus musculus, UniProt Q9QY30)
# [7] = system: leukemia cell lines which express high levels of Slc29a1; conditions: graded levels of azacytidine in the presence of a tight binding Slc29a1 inhibitor
# [8] = system: Abcb1; conditions: for direct liver mediated excretion: Abcb1-/- vs WT mice, cannulation of the gall bladder
# Sequence of Abcc1 (O35379 whole entry): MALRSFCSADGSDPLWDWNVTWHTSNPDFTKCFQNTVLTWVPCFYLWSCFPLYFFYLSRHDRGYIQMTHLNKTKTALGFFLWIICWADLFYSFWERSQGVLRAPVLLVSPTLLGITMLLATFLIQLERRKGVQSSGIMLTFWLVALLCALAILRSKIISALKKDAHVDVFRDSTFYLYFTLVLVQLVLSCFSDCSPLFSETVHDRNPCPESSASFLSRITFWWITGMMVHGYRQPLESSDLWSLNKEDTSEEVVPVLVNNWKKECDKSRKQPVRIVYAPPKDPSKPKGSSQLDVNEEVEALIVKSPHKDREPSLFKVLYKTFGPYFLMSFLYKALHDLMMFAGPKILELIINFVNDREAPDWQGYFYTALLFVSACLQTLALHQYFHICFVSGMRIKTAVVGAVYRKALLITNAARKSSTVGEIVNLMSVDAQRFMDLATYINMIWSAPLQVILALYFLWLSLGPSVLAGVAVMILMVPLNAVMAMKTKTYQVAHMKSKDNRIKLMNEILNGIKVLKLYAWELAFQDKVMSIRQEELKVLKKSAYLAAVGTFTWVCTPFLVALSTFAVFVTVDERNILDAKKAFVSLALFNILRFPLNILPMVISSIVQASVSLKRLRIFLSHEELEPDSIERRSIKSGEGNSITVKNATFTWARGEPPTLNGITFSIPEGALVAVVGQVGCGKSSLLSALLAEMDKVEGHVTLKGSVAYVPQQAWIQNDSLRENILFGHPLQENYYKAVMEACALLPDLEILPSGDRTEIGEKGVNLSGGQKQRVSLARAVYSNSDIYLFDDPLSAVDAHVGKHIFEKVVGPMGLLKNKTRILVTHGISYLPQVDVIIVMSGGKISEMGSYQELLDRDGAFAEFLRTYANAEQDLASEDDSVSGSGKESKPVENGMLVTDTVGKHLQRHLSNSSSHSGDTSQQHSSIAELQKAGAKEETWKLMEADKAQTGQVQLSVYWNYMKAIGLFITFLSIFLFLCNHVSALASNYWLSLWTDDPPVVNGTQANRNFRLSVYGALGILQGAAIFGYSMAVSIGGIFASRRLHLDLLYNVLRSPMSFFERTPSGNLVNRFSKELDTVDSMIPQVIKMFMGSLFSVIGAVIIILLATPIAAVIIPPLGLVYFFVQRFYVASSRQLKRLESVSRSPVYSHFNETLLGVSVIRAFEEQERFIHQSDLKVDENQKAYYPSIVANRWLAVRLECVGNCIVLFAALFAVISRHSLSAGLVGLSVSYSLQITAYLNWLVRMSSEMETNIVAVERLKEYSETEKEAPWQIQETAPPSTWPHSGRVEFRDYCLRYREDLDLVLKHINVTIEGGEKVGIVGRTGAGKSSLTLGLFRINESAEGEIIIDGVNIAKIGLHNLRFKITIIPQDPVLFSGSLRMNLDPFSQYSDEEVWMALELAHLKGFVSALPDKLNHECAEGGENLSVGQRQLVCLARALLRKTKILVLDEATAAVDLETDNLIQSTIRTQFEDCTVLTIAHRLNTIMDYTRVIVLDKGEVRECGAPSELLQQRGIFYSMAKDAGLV
# Sequence of Abcb11 (Q9QY30 whole entry): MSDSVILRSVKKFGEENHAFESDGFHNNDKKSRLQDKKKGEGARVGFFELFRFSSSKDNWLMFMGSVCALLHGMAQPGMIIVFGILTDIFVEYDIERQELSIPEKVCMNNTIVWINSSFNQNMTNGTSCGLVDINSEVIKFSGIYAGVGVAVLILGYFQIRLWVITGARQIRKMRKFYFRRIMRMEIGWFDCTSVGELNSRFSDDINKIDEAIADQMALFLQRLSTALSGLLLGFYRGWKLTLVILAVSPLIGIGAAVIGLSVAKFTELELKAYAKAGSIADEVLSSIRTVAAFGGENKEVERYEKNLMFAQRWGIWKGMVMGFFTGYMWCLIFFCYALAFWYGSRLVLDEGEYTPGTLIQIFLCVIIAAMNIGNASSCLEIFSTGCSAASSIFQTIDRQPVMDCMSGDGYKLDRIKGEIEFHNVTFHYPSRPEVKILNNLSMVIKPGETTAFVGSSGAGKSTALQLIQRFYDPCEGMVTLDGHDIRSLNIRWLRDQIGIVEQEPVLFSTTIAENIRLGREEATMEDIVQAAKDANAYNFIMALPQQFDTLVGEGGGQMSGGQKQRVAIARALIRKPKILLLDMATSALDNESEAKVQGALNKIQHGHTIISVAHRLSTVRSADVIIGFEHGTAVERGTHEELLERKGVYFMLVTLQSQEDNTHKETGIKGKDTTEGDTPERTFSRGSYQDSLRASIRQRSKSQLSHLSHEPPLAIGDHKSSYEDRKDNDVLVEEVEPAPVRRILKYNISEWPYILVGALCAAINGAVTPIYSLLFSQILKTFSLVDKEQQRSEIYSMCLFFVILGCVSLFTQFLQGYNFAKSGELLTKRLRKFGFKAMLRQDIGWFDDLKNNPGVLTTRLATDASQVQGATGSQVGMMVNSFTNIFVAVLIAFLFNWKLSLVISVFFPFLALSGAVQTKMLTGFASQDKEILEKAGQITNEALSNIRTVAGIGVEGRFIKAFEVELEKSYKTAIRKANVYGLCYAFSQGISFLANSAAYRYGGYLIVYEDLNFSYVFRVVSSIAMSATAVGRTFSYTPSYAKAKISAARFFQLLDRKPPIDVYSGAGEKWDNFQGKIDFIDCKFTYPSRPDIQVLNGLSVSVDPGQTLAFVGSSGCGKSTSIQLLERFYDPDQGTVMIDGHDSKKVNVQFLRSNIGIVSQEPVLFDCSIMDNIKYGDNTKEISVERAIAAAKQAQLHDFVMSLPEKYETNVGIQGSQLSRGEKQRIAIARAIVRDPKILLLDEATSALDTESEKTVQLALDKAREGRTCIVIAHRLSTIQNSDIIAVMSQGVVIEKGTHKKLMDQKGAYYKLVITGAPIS
# Sequence of Slc22a8 (Q9WTW5 whole entry): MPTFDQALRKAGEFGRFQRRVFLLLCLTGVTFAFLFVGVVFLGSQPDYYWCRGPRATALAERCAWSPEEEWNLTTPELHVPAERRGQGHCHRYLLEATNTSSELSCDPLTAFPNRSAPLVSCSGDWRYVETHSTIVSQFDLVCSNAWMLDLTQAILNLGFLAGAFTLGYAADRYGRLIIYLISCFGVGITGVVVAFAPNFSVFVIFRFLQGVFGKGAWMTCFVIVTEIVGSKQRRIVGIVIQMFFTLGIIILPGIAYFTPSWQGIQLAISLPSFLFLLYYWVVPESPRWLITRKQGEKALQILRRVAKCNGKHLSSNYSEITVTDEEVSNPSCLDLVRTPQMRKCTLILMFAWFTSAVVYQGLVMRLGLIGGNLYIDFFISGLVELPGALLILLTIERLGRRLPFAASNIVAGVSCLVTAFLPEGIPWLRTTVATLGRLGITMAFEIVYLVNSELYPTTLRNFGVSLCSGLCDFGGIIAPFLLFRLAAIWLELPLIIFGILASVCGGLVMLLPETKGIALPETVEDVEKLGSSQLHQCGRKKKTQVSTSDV
structure (smiles),measurement,setting,value
"C=CCNC1=C2C[C@@H](C)C[C@H](OC)[C@H](O)[C@@H](C)/C=C(\C)[C@H](OC(N)=O)[C@@H](OC)/C=C\C=C(/C)C(=O)NC(=CC1=O)C2=O [17AAG, 17-(allyl-amino)-17 denethoxygelandomycin]",sensitivity relative to GA,[1],7.2 fold
C(=N\NC1=NCCN1)/c1c2ccccc2c(/C=N/NC2=NCCN2)c2ccccc12 [Bisantrene],Drug resistance/sensitivity,[2],"Taxol analog (S),"
COc1cc([C@@H]2c3cc4c(cc3[C@@H](O[C@@H]3O[C@@H]5CO[C@@H](C)O[C@H]5[C@H](O)[C@H]3O)[C@H]3COC(=O)[C@H]23)OCO4)cc(OC)c1OP(=O)(O)O [Etoposide phosphate],toxicity in transporter deficient mice compared to WT,"[3]; Abcc1-/- vs WT mice, single dose",twice as toxic
same,"white blood cell, bone marrow nucleated cell and spleen myeloid activity",[3],severe depletion
COc1cc([C@@H]2c3cc4c(cc3[C@@H](O[C@@H]3O[C@@H]5CO[C@@H](C)O[C@H]5[C@H](O)[C@H]3O)[C@H]3COC(=O)[C@H]23)OCO4)cc(OC)c1O [Etoposide],"white blood cell, bone marrow nucleated cell and spleen myeloid activity",[3],depleted in Abcc1 mice.
same,Drug resistance/sensitivity,[3]; gene Abcc1,Etoposide (S)
NCCc1c[nH]cn1 [Histamine],Drug resistance/sensitivity,[4],"Histamine (S),"
Cn1c(N)nc2ncc(-c3ccccc3)cc21 [PhIP],concentration,[5],higher concentration
same,intestinal excretion,[5],highly impaired
C[C@H](CCC(=O)NCCS(=O)(=O)O)[C@H]1CC[C@H]2[C@@H]3[C@H](O)C[C@@H]4C[C@H](O)CC[C@]4(C)[C@H]3C[C@H](O)[C@]12C [Taurocholate],bile acid output increase,[6]; WT mice after Taurocholate injection,output; WT mice show a 20-fold
same,taurocholate output increase,[6]; WT mice after tail vein injection,20 fold
Nc1ncn([C@@H]2O[C@H](CO)[C@@H](O)[C@H]2O)c(=O)n1 [azacytidine],loss in cytotoxicity,[7],> 10 fold
C[C@H]1O[C@@H](O[C@H]2[C@@H](O)C[C@H](O[C@H]3[C@@H](O)C[C@H](O[C@H]4CC[C@@]5(C)[C@H](CC[C@@H]6[C@@H]5C[C@@H](O)[C@]5(C)[C@@H](C7=CC(=O)OC7)CC[C@]65O)C4)O[C@@H]3C)O[C@@H]2C)C[C@H](O)[C@@H]1O [digoxin],direct liver mediated excretion,[8],moderate decrease
CC(=O)O[C@H]1C(=O)[C@@]2(C)[C@H]([C@H](OC(=O)c3ccccc3)[C@]3(O)C[C@H](OC(=O)[C@H](O)[C@@H](NC(=O)c4ccccc4)c4ccccc4)C(C)=C1C3(C)C)[C@]1(OC(C)=O)CO[C@@H]1C[C@@H]2O [paclitaxel],direct liver mediated excretion,[8],moderate decrease
same,organ penetration,"[8]; brain, ovaries, adrenal gland and intestine of Abcb1-/- mice",increased penetration
